Literature values as cited in patent US20100160366A1, “TREATMENT METHOD” (Schering Corporation, priority 2000, published 2010).

What was measured:
[1] = test system: eosinophils
[2] = test system: monocytes
[3] = test system: allergic immune cells; settings: allergic immune cells in vitro
[4] = test system: IL-6
[5] = test system: ICAM-1

SMILES: CCOC(=O)N1CCC(=C2c3ccc(Cl)cc3CCc3cccnc32)CC1 [loratadine]
- activity of eosinophils [1]: inhibited
- chemotaxis of eosinophils [1]: inhibited
- activation of monocytes as measured by superoxide anion production [2]: reduced
- release of mast cell histamine [3]: inhibit
- release of the cysteinyl leukotriene LTC4 [3]: inhibit
- inflammatory cytokine IL-6 [4]: inhibited
- adhesion molecule ICAM-1 expression [5]: reduced
